Ten compounds from patent publication US7279582B2, “Retroviral protease inhibiting compounds” (priority 1995, dated 2007) can be followed below.

What is called IC50 is the concentration that gives 50% inhibition. Lower therefore signals greater potency in that assay.

One data set has as its target HIV protease (Human immunodeficiency virus type 1 group M subtype B, UniProt P04585). Put plainly: Fluorogenic assay for screening inhibitors of HIV protease. Format: biochemical. Particulars: Inhibitor Concentration 0.5 nanomolar. Here is the method: Fluorogenic Assay for Screening Inhibitors of HIV Protease
The inhibitory potency of the compound of the invention can be determined by the following method.
The compound of the invention is dissolved in DMSO and a small aliquot further diluted with DMSO to 100 times the final concentration desired for testing. The reaction is carried out in a 6×50 mm tube in a total volume of 300 microliters. The final concentrations of the components in the reaction buffer are: 125 mM sodium acetate, 1 M sodium chloride, 5 mM dithiothreitol, 0.5 mg/ml bovine serum albumin, 1.3 μM fluorogenic substrate, 2% (v/v) dimethylsulfoxide, pH 4.5. After addition of inhibitor, the reaction mixture is placed in the fluorometer cell holder and incubated at 30° C. for several minutes. The reaction is initiated by the addition of a small aliquot of cold HIV protease. The fluorescence intensity (excitation 340 nm, emmision 490 nM) is recorded as a function of time. The reaction rate is determined for the first six to eight minutes. The observed rate is directly proportional to the moles of substrate cleaved-per unit time. The percent inhibition is 100×(1−(rate in presence of inhibitor)/(rate in absence of inhibitor)).
Fluorogenic substrate: Dabcyl-Gaba-Ser-Gln-Asn-Tyr-Pro-lle-Val-Gln-EDANS wherein DABCYL=4-(4-dimethylamino-phenyl)azobenzoic acid, Gaba=γ-aminobutyric acid, and EDANS=5-((2-aminoethyl)amino)-naphthalene-1-sulfonic acid.

For another data set, the system named is HIVIIIB. Put plainly: Anti-HIV activity in MT4 cells infected with HIVIIIB (MTT readout). Format: cell-based. The settings on record: 0% plasma, 5 days, n=4 duplicate determinations. An excerpt:
(§1) The anti-HIV activity of the compound of the invention can be determined in MT4 cells according to the following procedure. MT4 cells were infected with cell-free supernatant of HIVIIIB (previously frozen with known 50% tissue culture infectious dose (TCID50) at 0.003 multiplicity of infection (MOI) for one hour. After one hour infection, cells were washed twice to remove residual viruses, resuspended in culture media and seeded into 96-well tissue culture plates at 1×10^4 cells per well with various half-log dilutions of compounds. Uninfected cells are included as toxicity and cell controls. RPMI 1640 media (Gibco) with 10% fetal bovine serum were used as culture media. Various concentrations of human serum (Sigma) 50%, 25% and 12.5% were added to culture media resulting in final concentration of 60%, 35% and 22.5% total serum. All assay plates were incubated in 37 deg. cent. incubator for 5 days. MTT (sigma, 5 mg/ml stock in PBS) was added to all wells at 25 ul per well, incubate for 4 hours. 20% SDS with 0.02 N HCI in water was added at 50 ul per well to lyse cells. Plates incubated overnight for complete lyses were read on a microtitre plate reader at 570/650 nm wavelengths to determine cell optical density (O.D.). Raw data were analysed for percent inhibition by the following formula: O.D. test well−O.D. virus control×100 O.D. cell control−O.D. virus control The 50% effective concentration (EC50) was calculated by the median effect equation (Chou, 1975, Proc. Int. Cong. Pharmacol. 6th p. 619) to determine the efficacy of compound. The 50% lethal concentration (LC50) was calculated using uninfected MT4 cells.
(§2) Under these conditions, the following data were obtained (n=4 duplicate determinations: […]

The test system of another data set is uninfected MT4 cells. Format: cell-based. The settings on record: n=4 duplicate determinations, read-out: LC50 (the source's name).
From the text: as §1, §2

Regarding `Cc1cccc(C)c1OCC(=O)N[C@@H](Cc1ccccc1)[C@@H](O)C[C@H](Cc1ccccc1)NC(=O)[C@H](C(C)C)N1CCOC1=O` [Example 3C, (2S,3S,5S)-2-(2,6-Dimethylphenoxyacetyl)amino-3-hydroxy-5-[2S-(3-oxazolidin-2-onyl)-3-methyl-butanoyl]amino-1,6-diphenylhexane], at HIV protease, the “Percent Inhibition” value is listed as 86.9%. This compound showed an IC50 with HIVIIIB of 0.025 µM. The CC50 in the data set on uninfected MT4 cells amounted to 49500 nM.

With `Cc1cccc(C)c1OCC(=O)N[C@@H](Cc1ccccc1)[C@@H](O)C[C@H](Cc1ccccc1)NC(=O)[C@H](C(C)C)N1CCCNC1=O` [Example 2B, (2S,3S,5S)-2-(2,6-Dimethylphenoxyacetyl)amino-3-hydroxy-5-[2S-(1-tetrahydro-pyrimid-2-onyl)-3-methylbutanoyl]amino-1,6-diphenylhexane], at HIV protease, the “Percent Inhibition” value stood at 93.2%. For the same compound, in the data set with HIVIIIB, the IC50 worked out at 0.016 µM. In the data set on uninfected MT4 cells, the CC50 came to 17800 nM.

For `Cc1cc(N)cc(C)c1OCC(=O)N[C@@H](Cc1ccccc1)[C@@H](O)C[C@H](Cc1ccccc1)NC(=O)[C@H](C(C)C)N1CCNC1=O` [Example 10F, (2S,3S,5S)-2-(4-Amino-2,6-dimethylphenoxyacetyl)amino-3-hydroxy-5-(2S-(1-imidazolidin-2-onyl)-3-methyl-butanoyl)amino-1,6-diphenylhexane], the “Percent Inhibition” value at HIV protease is 81.0%. In addition, in the data set on HIVIIIB, the IC50 turned out to be 0.047 µM. Moreover, in the data set with uninfected MT4 cells, the CC50 worked out at 92000 nM.

For the compound `CC(C)[C@@H](C(=O)N[C@@H](Cc1ccccc1)C[C@H](O)[C@H](Cc1ccccc1)NC(=O)O[C@H]1CO[C@H]2OCC[C@H]21)N1CCNC1=O` [Example 5, (2S,3S,5S)-2-[(3R,3aS,6aR)-Bis-tetrahydrofuranyloxy]amino-3-hydroxy-5-[2S-(1-imidazolidin-2-onyl)-3-methylbutanoyl]amino-1,6-diphenylhexane], the “Percent Inhibition” value on HIV protease is reported as 80.8%. In the data set on HIVIIIB, this compound came in with an IC50 of 0.368 µM. Besides, the CC50 in the data set with uninfected MT4 cells was greater than 100000 nM.

As for `Cc1cc(F)cc(C)c1OCC(=O)N[C@@H](Cc1ccccc1)[C@@H](O)C[C@H](Cc1ccccc1)NC(=O)[C@H](C(C)C)N1CCNC1=O` [Example 12B, (2S,3S,5S)-2-(4-Fluoro-2,6-dimethylphenoxyacetyl)amino-3-hydroxy-5-(2S-(1-imidazolidin-2-onyl)-3-methyl-butanoyl)amino-1,6-diphenylhexane], the “Percent Inhibition” value at HIV protease was determined as 76.8%. In the data set with HIVIIIB, this compound gave a 50% inhibitory concentration (IC50) of 0.093 µM. For the same compound, the CC50 with uninfected MT4 cells stood at 19100 nM.

Regarding `Cc1cccc(C)c1OCC(=O)N[C@@H](Cc1ccccc1)[C@@H](O)C[C@H](Cc1ccccc1)NC(=O)[C@H](C(C)C)N1CCNNC1=O` [Example 26H, (2S,3S,5S)-2-(2,6-Dimethylphenoxyacetyl)amino-3-hydroxy-5[2S-(4-aza-1-tetrahydro-pyrimid-2-onyl)-3-methyl-butanoyl]amino-1,6-diphenylhexane], on HIV protease, the “Percent Inhibition” value turned out to be 94.6%. Moreover, in the data set on HIVIIIB, 0.015 µM corresponded to half-maximal inhibition (IC50). For the same compound, the CC50 with uninfected MT4 cells stood at 33000 nM.

As to `Cc1cccc(C)c1OCC(=O)N[C@@H](Cc1ccccc1)[C@@H](O)C[C@H](Cc1ccccc1)NC(=O)[C@H](C(C)C)N1CCNC1=S` [Example 9B, (2S,3S,5S)-2-(2,6-Dimethylphenoxyacetyl)amino-3-hydroxy-5-(2S-(1-imidazolidin-2-thionyl)-3-methylbutanoyl)amino-1,6-diphenylhexane], on HIV protease, the “Percent Inhibition” value was determined as 62.6%. In the data set on HIVIIIB, this compound returned an IC50 of 0.272 µM. The CC50 in the data set on uninfected MT4 cells came out at 19300 nM.

As to `Cc1cccc(C)c1OCC(=O)N[C@@H](Cc1ccccc1)[C@@H](O)C[C@H](Cc1ccccc1)NC(=O)[C@H](C(C)C)N1CCNC(=O)C1=O` [Example 29C, (2S,3S,5S)-2-(2,6-Dimethylphenoxyacetyl)amino-3-hydroxy-5-[2S-(1-piperazin-2,3-dionyl)-3-methylbutanoyl]amino-1,6-diphenylhexane], the “Percent Inhibition” value at HIV protease worked out at 72.6%. The compound further registered an IC50 in the data set on HIVIIIB of 0.427 µM. Also, the CC50 in the data set with uninfected MT4 cells came out at 56000 nM.

Take `Cc1cccc(C)c1OCC(=O)N[C@@H](Cc1ccccc1)[C@@H](O)C[C@H](Cc1ccccc1)NC(=O)[C@@H](N1CCNC1=O)C(C)(C)C` [Example 8, (2S,3S,5S)-2-(2,6-Dimethylphenoxyacetyl)amino-3-hydroxy-5-(2S-(1-imidazolidin-2-onyl)-3,3-dimethylbutanoyl)amino-1,6-diphenylhexane]: the “Percent Inhibition” value at HIV protease is recorded as 55.6%. In the data set with HIVIIIB, this compound had an IC50 of 0.019 µM. Moreover, in the data set with uninfected MT4 cells, the CC50 was 17800 nM.

With `Cc1cccc(C)c1OCC(=O)N[C@@H](Cc1ccccc1)[C@@H](O)C[C@H](NC(=O)[C@H](C(C)C)N1CCCNC1=O)C(C)C` [Example 27D, (2S,3S,5S)-2-(2,6-Dimethylphenoxyacetyl)amino-3-hydroxy-5-[2S-(1-tetrahydro-pyrimid-2-onyl)-3-methylbutanoyl]amino-1-phenyl-6-methylheptane], the “Percent Inhibition” value on HIV protease came to 92.9%. Moreover, the IC50 with HIVIIIB is 0.03 µM. The CC50 with uninfected MT4 cells worked out at 56200 nM.
